Experimental data reported in PubChem BioAssay (NCI).
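Five concentrations, 48 hours, 96-well plates. The concentration for full growth arrest is given as TGI.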

Columns and labels:
Experiment in all cases: NCI anticancer screen, dose series, 48 h
SK-OV-3 ovarian = test system: SK-OV-3 ovarian
NCI-H226 lung = test system: NCI-H226 lung
HL-60(TB) leukemia = test system: HL-60(TB) leukemia
DMS 114 small cell lung = test system: DMS 114 small cell lung
HCT-116 colon = test system: HCT-116 colon
SK-MEL-2 melanoma = test system: SK-MEL-2 melanoma
KM20L2 colon = test system: KM20L2 colon
SNB-19 CNS = test system: SNB-19 CNS
SNB-75 CNS = test system: SNB-75 CNS
HOP-92 NSCLC = test system: HOP-92 NSCLC
HCT-15 colon = test system: HCT-15 colon
OVCAR-8 ovarian = test system: OVCAR-8 ovarian
NCI-H460 lung = test system: NCI-H460 lung
UACC-62 melanoma = test system: UACC-62 melanoma
SW-620 colon = test system: SW-620 colon
A549 NSCLC = test system: A549 NSCLC
LXFL 529 NSCLC = test system: LXFL 529 NSCLC
M19-MEL melanoma = test system: M19-MEL melanoma
SN12C renal = test system: SN12C renal
TK-10 renal = test system: TK-10 renal
COLO 205 colon = test system: COLO 205 colon
M14 melanoma = test system: M14 melanoma
NCI-H23 lung = test system: NCI-H23 lung
SF-295 CNS = test system: SF-295 CNS
U251 CNS = test system: U251 CNS
KM12 colon = test system: KM12 colon
HOP-18 NSCLC = test system: HOP-18 NSCLC
786-0 renal = test system: 786-0 renal
DLD-1 colon = test system: DLD-1 colon
ACHN renal = test system: ACHN renal
SNB-78 CNS = test system: SNB-78 CNS
CCRF-CEM leukemia = test system: CCRF-CEM leukemia
OVCAR-4 ovarian = test system: OVCAR-4 ovarian
A498 renal = test system: A498 renal
IGROV1 ovarian = test system: IGROV1 ovarian
HOP-62 NSCLC = test system: HOP-62 NSCLC
EKVX NSCLC = test system: EKVX NSCLC
UO-31 renal = test system: UO-31 renal
MOLT-4 leukemia = test system: MOLT-4 leukemia
SF-268 CNS = test system: SF-268 CNS
UACC-257 melanoma = test system: UACC-257 melanoma
K-562 leukemia = test system: K-562 leukemia
HCC-2998 colon = test system: HCC-2998 colon
SF-539 CNS = test system: SF-539 CNS
HT29 colon = test system: HT29 colon
LOX IMVI melanoma = test system: LOX IMVI melanoma
RXF 393 renal = test system: RXF 393 renal
SK-MEL-5 melanoma = test system: SK-MEL-5 melanoma
DMS 273 small cell lung = test system: DMS 273 small cell lung
RPMI-8226 leukemia = test system: RPMI-8226 leukemia
SK-MEL-28 melanoma = test system: SK-MEL-28 melanoma
OVCAR-3 ovarian = test system: OVCAR-3 ovarian
MALME-3M melanoma = test system: MALME-3M melanoma
OVCAR-5 ovarian = test system: OVCAR-5 ovarian
NCI-H522 lung = test system: NCI-H522 lung
SR leukemia = test system: SR leukemia
CAKI-1 renal = test system: CAKI-1 renal

Measured: TGI

CCOC(=O)[C@@]12C(C)=CC(=O)O[C@]1(C)C[C@H]2C#N
not listed: OVCAR-5 ovarian | NCI-H522 lung | SR leukemia | CAKI-1 renal
> 100 µM: all other assays above

COC1CC(OC)C2OC(c3ccccc3)OCC2O1 (stereo not given)
not listed: NCI-H226 lung | DMS 114 small cell lung | SNB-19 CNS | HOP-92 NSCLC | COLO 205 colon | OVCAR-4 ovarian | A498 renal | SF-268 CNS | DMS 273 small cell lung | RPMI-8226 leukemia | CAKI-1 renal
> 100 µM: all other assays above

COC1OC(C)C(OC(=O)C(C)(C)C)C(OS(=O)(=O)c2ccc(C)cc2)C1OS(=O)(=O)c1ccc(C)cc1 (stereo not given)
not listed: HOP-92 NSCLC | UACC-62 melanoma | TK-10 renal | A498 renal | EKVX NSCLC | LOX IMVI melanoma
> 100 µM: all other assays above
